Assay results published in patent publication US7304093B2, “Ketone compounds and compositions for cholesterol management and related uses” (Esperion Therapeutics, Inc., priority 2000, dated 2007).
Like-named read-outs stand apart in the source and are kept apart here. Marks after values point to notes of the source that are not given here.

Test system: female obese Zucker rats
Test: Serum lipid and glycemic control variables in chow-fed obese female Zucker rats, daily oral gavage for two weeks
Assay type: in vivo, rat
Conditions: for change in vivo at 100 mg/kg: Rattus norvegicus, Table 9; for Glucose / HDL-C / NEFA / Non-HDL-C / TG / Insulin: serum, mean ± SEM; for Insulin: Tables 10, 11
Procedure, shortened: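 Female obese Zucker fa rats, 10–12 wk, 400–500 g, chow-fed, dosed daily by oral gavage for 14 days in CMC/Tween 20 or ethanol/PEG-200 vehicle. After a 6-h fast, serum was sampled pre-dose, day 7 and day 14. Triglycerides, total cholesterol, NEFA and β-hydroxybutyrate were measured, plus lipoprotein cholesterol by gel-filtration profiling.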

CC(C)(CO)CCCCC(=O)CCCCC(C)(C)CO [Compound 214c, 1,13-Dihydroxy-2,2,12,12-tetramethyltridecan-7-one] was tested. Which “HDL-C, percent increase (+) or decrease (−) of the pretreatment control value” (3 mg/kg daily oral, 1 wk) did it give?
Its value is “(−10) percent”.

What about the “HDL-C, percent increase (+) or decrease (−) of the pretreatment control value” (3 mg/kg daily oral, 2 wk) of the same molecule?
Its value is “(−19) percent”.

What about the “NEFA, percent increase (+) or decrease (−) of the pretreatment control value” (“NEFA, percent increase (+) or decrease” for short) (3 mg/kg daily oral, 2 wk) of the same molecule?
The value was “(+145) percent”.

And the “HDL-C, percent increase (+) or decrease (−) of the pretreatment control value” (10 mg/kg daily oral, 1 wk)?
Its value is “(+113) percent”.

What about the “NEFA, percent increase (+) or decrease” value (10 mg/kg daily oral, 1 wk) of the same molecule?
Its value is “(−18) percent”.

And the “TG, percent increase (+) or decrease (−) of the pretreatment control value” (“TG, percent increase (+) or decrease (−)” for short) (10 mg/kg daily oral, 1 wk)?
The value was “(−23) percent”.

What about the “HDL-C, percent increase (+) or decrease (−) of the pretreatment control value” (10 mg/kg daily oral, 2 wk) of the same molecule?
The value was “(+115) percent”.

And the “HDL-C, percent increase (+) or decrease (−) of the pretreatment control value” (30 mg/kg daily oral, 1 wk)?
The value was “(+140) percent”.

And the “NEFA, percent increase (+) or decrease” value (30 mg/kg daily oral, 1 wk)?
The value was “(−21) percent”.

What about the “TG, percent increase (+) or decrease (−)” value (30 mg/kg daily oral, 1 wk) of the same molecule?
Its value is “(−27) percent”.

What about the “HDL-C, percent increase (+) or decrease (−) of the pretreatment control value” (30 mg/kg daily oral, 2 wk) of the same molecule?
The value was “(+142) percent”.

What about the “Non-HDL-C, percent increase (+) or decrease (−) of the pretreatment control value” (30 mg/kg daily oral, 2 wk) of the same molecule?
Its value is “(+127) percent”.

What about the “HDL-C, percent increase (+) or decrease (−) of the pretreatment control value” (100 mg/kg daily oral, 1 wk) of the same molecule?
The value was “(+173) percent”.

What about the “NEFA, percent increase (+) or decrease” value (100 mg/kg daily oral, 1 wk) of the same molecule?
Its value is “(−30) percent”.

And the “TG, percent increase (+) or decrease (−)” value (100 mg/kg daily oral, 1 wk)?
Its value is “(−54) percent”.

What about the “HDL-C, percent increase (+) or decrease (−) of the pretreatment control value” (100 mg/kg daily oral, 2 wk) of the same molecule?
Its value is “(+176) percent”.

And the “NEFA, percent increase (+) or decrease” value (100 mg/kg daily oral, 2 wk)?
The value was “(−33) percent”.

What about the “TG, percent increase (+) or decrease (−)” value (100 mg/kg daily oral, 2 wk) of the same molecule?
The value was “(−33) percent”.

What about the change in vivo at 100 mg/kg (168 h, 100 mg/kg daily oral, 1 wk, read-out: HDL-Cholesterol, Percent Change from Pre-Treatment) of the same molecule?
Its change in vivo at 100 mg/kg is 110%.

What about the change in vivo at 100 mg/kg (168 h, 100 mg/kg daily oral, 1 wk, read-out: NonHDL-Cholesterol, Percent Change from Pre-Treatment) of the same molecule?
Its change in vivo at 100 mg/kg is -23%.

What about the change in vivo at 100 mg/kg (168 h, 100 mg/kg daily oral, 1 wk, read-out: TG, Percent Change from Pre-Treatment) of the same molecule?
The change in vivo at 100 mg/kg was -54%.

And the change in vivo at 100 mg/kg (336 h, 100 mg/kg daily oral, 2 wk, read-out: HDL-Cholesterol, Percent Change from Pre-Treatment)?
Its change in vivo at 100 mg/kg is 126%.

And the change in vivo at 100 mg/kg (336 h, 100 mg/kg daily oral, 2 wk, read-out: NonHDL-Cholesterol, Percent Change from Pre-Treatment)?
The change in vivo at 100 mg/kg was -10%.

What about the change in vivo at 100 mg/kg (336 h, 100 mg/kg daily oral, 2 wk, read-out: TG, Percent Change from Pre-Treatment) of the same molecule?
The change in vivo at 100 mg/kg was -29%.

What about the Glucose (3 mg/kg daily oral, 1 wk) of the same molecule?
The Glucose was 106 ± 2 mg/dL.

And the HDL-C (3 mg/kg daily oral, 1 wk)?
The HDL-C was 43 ± 4^a mg/dl.

What about the NEFA (3 mg/kg daily oral, 1 wk) of the same molecule?
The NEFA was 1.2 ± 0.05 mg/dL.

And the Non-HDL-C (3 mg/kg daily oral, 1 wk)?
The Non-HDL-C was 25 ± 3 mg/dL.

What about the TG (3 mg/kg daily oral, 1 wk) of the same molecule?
Its TG is 800 ± 75 mg/dL.

What about the Insulin (3 mg/kg daily oral, 1 wk) of the same molecule?
The Insulin was 7.5 ± 0.8 ng/mL.

What about the Glucose (3 mg/kg daily oral, 2 wk) of the same molecule?
Its Glucose is 103 ± 3 mg/dL.

What about the HDL-C (3 mg/kg daily oral, 2 wk) of the same molecule?
The HDL-C was 39 ± 4^a mg/dl.

And the NEFA (3 mg/kg daily oral, 2 wk)?
The NEFA was 1.6 ± 0.13.

What about the Non-HDL-C (3 mg/kg daily oral, 2 wk) of the same molecule?
Its Non-HDL-C is 22 ± 2 mg/dL.

And the TG (3 mg/kg daily oral, 2 wk)?
The TG was 781 ± 65 mg/dL.

What about the Insulin (3 mg/kg daily oral, 2 wk) of the same molecule?
Its Insulin is 7.8 ± 0.6 ng/mL.

And the Glucose (10 mg/kg daily oral, 1 wk)?
The Glucose was 110 ± 2 mg/dL.

What about the HDL-C (10 mg/kg daily oral, 1 wk) of the same molecule?
The HDL-C was 52 ± 3^a mg/dl.

And the NEFA (10 mg/kg daily oral, 1 wk)?
The NEFA was 0.98 ± 0.08.

What about the Non-HDL-C (10 mg/kg daily oral, 1 wk) of the same molecule?
Its Non-HDL-C is 21 ± 2 mg/dL.

What about the TG (10 mg/kg daily oral, 1 wk) of the same molecule?
Its TG is 602 ± 37^a mg/dl.

What about the Insulin (10 mg/kg daily oral, 1 wk) of the same molecule?
Its Insulin is 7.5 ± 0.4 ng/mL.

And the Glucose (10 mg/kg daily oral, 2 wk)?
Its Glucose is 110 ± 3 mg/dL.

What about the HDL-C (10 mg/kg daily oral, 2 wk) of the same molecule?
Its HDL-C is 53 ± 4^a mg/dl.

And the NEFA (10 mg/kg daily oral, 2 wk)?
Its NEFA is 1.0 ± 0.10 mg/dL.

And the Non-HDL-C (10 mg/kg daily oral, 2 wk)?
The Non-HDL-C was 25 ± 2 mg/dL.

And the TG (10 mg/kg daily oral, 2 wk)?
The TG was 730 ± 52 mg/dL.

And the Insulin (10 mg/kg daily oral, 2 wk)?
The Insulin was 7.8 ± 0.5 ng/mL.

What about the Glucose (30 mg/kg daily oral, 1 wk) of the same molecule?
Its Glucose is 112 ± 13 mg/dL.

And the HDL-C (30 mg/kg daily oral, 1 wk)?
The HDL-C was 60 ± 3^a mg/dl.

What about the NEFA (30 mg/kg daily oral, 1 wk) of the same molecule?
The NEFA was 1.1 ± 0.05.

What about the Non-HDL-C (30 mg/kg daily oral, 1 wk) of the same molecule?
The Non-HDL-C was 28 ± 2 mg/dL.

And the TG (30 mg/kg daily oral, 1 wk)?
The TG was 726 ± 49^a mg/dl.

What about the Insulin (30 mg/kg daily oral, 1 wk) of the same molecule?
Its Insulin is 0.091 ± 0.006 ng/mL.

What about the Glucose (30 mg/kg daily oral, 2 wk) of the same molecule?
Its Glucose is 120 ± 3 mg/dL.

What about the HDL-C (30 mg/kg daily oral, 2 wk) of the same molecule?
The HDL-C was 61 ± 4^a mg/dl.

And the NEFA (30 mg/kg daily oral, 2 wk)?
The NEFA was 1.2 ± 0.10 mg/dL.

And the Non-HDL-C (30 mg/kg daily oral, 2 wk)?
The Non-HDL-C was 38 ± 5^a mg/dl.

And the TG (30 mg/kg daily oral, 2 wk)?
The TG was 985 ± 110 mg/dL.

What about the Insulin (30 mg/kg daily oral, 2 wk) of the same molecule?
Its Insulin is 0.098 ± 0.007 ng/mL.

What about the Glucose (100 mg/kg daily oral, 1 wk) of the same molecule?
The Glucose was 120 ± 5 mg/dL.

What about the HDL-C (100 mg/kg daily oral, 1 wk) of the same molecule?
Its HDL-C is 78 ± 5^a mg/dl.

And the NEFA (100 mg/kg daily oral, 1 wk)?
Its NEFA is 0.98 ± 0.04.

What about the Non-HDL-C (100 mg/kg daily oral, 1 wk) of the same molecule?
The Non-HDL-C was 23 ± 1 mg/dL.

What about the TG (100 mg/kg daily oral, 1 wk) of the same molecule?
The TG was 485 ± 29^a mg/dl.

What about the Insulin (100 mg/kg daily oral, 1 wk) of the same molecule?
The Insulin was 0.109 ± 0.01 ng/mL.

And the Glucose (100 mg/kg daily oral, 2 wk)?
The Glucose was 118 ± 3 mg/dL.

And the HDL-C (100 mg/kg daily oral, 2 wk)?
Its HDL-C is 79 ± 6^a mg/dl.

And the NEFA (100 mg/kg daily oral, 2 wk)?
Its NEFA is 0.94 ± 0.04.

And the Non-HDL-C (100 mg/kg daily oral, 2 wk)?
The Non-HDL-C was 32 ± 2 mg/dL.

And the TG (100 mg/kg daily oral, 2 wk)?
The TG was 702 ± 53^a mg/dl.

And the Insulin (100 mg/kg daily oral, 2 wk)?
Its Insulin is 0.11 ± 0.009 ng/mL.
